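Briefly, cells in 96-well plates were exposed to five compound concentrations for 48 h, and endpoints were estimated by linear interpolation. GI50 is the concentration that inhibits growth by half.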 The source made the active and inactive calls. No stated cut-off is given here; in the data, active = GI50 up to about 1.1 µM and inactive = higher.
Key:
Assay in all cases: NCI anticancer screen, dose series, 48 h
MOLT-4 = test system: MOLT-4
SR = test system: SR
OVCAR-3 = test system: OVCAR-3
CCRF-CEM = test system: CCRF-CEM
ACHN = test system: ACHN
HL-60 = test system: HL-60
HCT-116 = test system: HCT-116
HOP-92 = test system: HOP-92
SNB-78 = test system: SNB-78
OVCAR-4 = test system: OVCAR-4
EKVX = test system: EKVX
786-0 = test system: 786-0
OVCAR-8 = test system: OVCAR-8
Malme-3M = test system: Malme-3M
U-251 = test system: U-251
M14 = test system: M14
COLO 205 = test system: COLO 205
SK-MEL-28 = test system: SK-MEL-28
OVCAR-5 = test system: OVCAR-5
RXF 393 = test system: RXF 393
SK-MEL-2 = test system: SK-MEL-2
K562 = test system: K562
NCI-H226 = test system: NCI-H226
NCI-H522 = test system: NCI-H522
SF-268 = test system: SF-268
KM-20L2 = test system: KM-20L2
HCC 2998 = test system: HCC 2998
HT-29 = test system: HT-29
XF498 = test system: XF498
LXFL 529 = test system: LXFL 529
HCT-15 = test system: HCT-15
SNB-19 = test system: SNB-19
DMS-114 = test system: DMS-114
DLD-1 = test system: DLD-1
UACC-257 = test system: UACC-257
SF-539 = test system: SF-539
SNB-75 = test system: SNB-75
SN12C = test system: SN12C
A498 = test system: A498
UO-31 = test system: UO-31
M19-MEL = test system: M19-MEL
DMS-273 = test system: DMS-273
TK-10 = test system: TK-10
UACC-62 = test system: UACC-62
LOX IMVI = test system: LOX IMVI
RPMI-8226 = test system: RPMI-8226
NCI-H23 = test system: NCI-H23
SK-MEL-5 = test system: SK-MEL-5
IGROV-1 = test system: IGROV-1
NCI-H460 = test system: NCI-H460
HOP-62 = test system: HOP-62
A549 = test system: A549
SK-OV-3 = test system: SK-OV-3
HOP-18 = test system: HOP-18
SF-295 = test system: SF-295
SW-620 = test system: SW-620
KM12 = test system: KM12
CAKI-1 = test system: CAKI-1

## Cc1ccc(S(=O)(=O)NC(=O)C2(Br)S(=O)(=O)OCCOS2(=O)=O)cc1
MOLT-4
  GI50: > 100 µM (inactive)
SR
  GI50: > 100 µM (inactive)
OVCAR-3
  GI50: > 100 µM (inactive)
CCRF-CEM
  GI50: > 100 µM (inactive)
ACHN
  GI50: > 100 µM (inactive)
HL-60
  GI50: > 100 µM (inactive)
HCT-116
  GI50: > 100 µM (inactive)
HOP-92
  GI50: > 100 µM (inactive)
SNB-78
  GI50: > 100 µM (inactive)
OVCAR-4
  GI50: > 100 µM (inactive)
EKVX
  GI50: > 100 µM (inactive)
786-0
  GI50: > 100 µM (inactive)
OVCAR-8
  GI50: > 100 µM (inactive)
Malme-3M
  GI50: > 100 µM (inactive)
U-251
  GI50: > 100 µM (inactive)
M14
  GI50: > 100 µM (inactive)
COLO 205
  GI50: > 100 µM (inactive)
SK-MEL-28
  GI50: > 100 µM (inactive)
OVCAR-5
  GI50: > 100 µM (inactive)
RXF 393
  GI50: > 100 µM (inactive)
SK-MEL-2
  GI50: > 100 µM (inactive)
K562
  GI50: > 100 µM (inactive)
NCI-H226
  GI50: > 100 µM (inactive)
NCI-H522
  GI50: > 100 µM (inactive)
SF-268
  GI50: > 100 µM (inactive)
KM-20L2
  GI50: > 100 µM (inactive)
HCC 2998
  GI50: > 100 µM (inactive)
HT-29
  GI50: > 100 µM (inactive)
XF498
  GI50: > 100 µM (inactive)
LXFL 529
  GI50: > 100 µM (inactive)
HCT-15
  GI50: > 100 µM
SNB-19
  GI50: > 100 µM (inactive)
DMS-114
  GI50: > 100 µM (inactive)
DLD-1
  GI50: > 100 µM (inactive)
UACC-257
  GI50: > 100 µM (inactive)
SF-539
  GI50: > 100 µM (inactive)
SNB-75
  GI50: > 100 µM (inactive)
SN12C
  GI50: > 100 µM (inactive)
A498
  GI50: > 100 µM (inactive)
UO-31
  GI50: > 100 µM (inactive)
M19-MEL
  GI50: > 100 µM (inactive)
DMS-273
  GI50: > 100 µM (inactive)
TK-10
  GI50: > 100 µM (inactive)
UACC-62
  GI50: > 100 µM (inactive)
LOX IMVI
  GI50: > 100 µM (inactive)
RPMI-8226
  GI50: > 100 µM (inactive)
NCI-H23
  GI50: > 100 µM (inactive)
SK-MEL-5
  GI50: > 100 µM (inactive)
IGROV-1
  GI50: > 100 µM (inactive)
NCI-H460
  GI50: > 100 µM (inactive)
HOP-62
  GI50: > 100 µM (inactive)
A549
  GI50: > 100 µM (inactive)
SK-OV-3
  GI50: > 100 µM (inactive)

## O=C(/C=C(\O)C(=O)O)/C=C(\O)c1ccccc1Cl
MOLT-4
  GI50: > 100 µM (inactive)
SR
  GI50: > 100 µM (inactive)
OVCAR-3
  GI50: > 100 µM (inactive)
CCRF-CEM
  GI50: > 100 µM (inactive)
ACHN
  GI50: > 100 µM (inactive)
HL-60
  GI50: > 100 µM (inactive)
HCT-116
  GI50: > 100 µM (inactive)
HOP-92
  GI50: > 100 µM (inactive)
HOP-18
  GI50: > 100 µM (inactive)
OVCAR-4
  GI50: > 100 µM (inactive)
EKVX
  GI50: > 100 µM (inactive)
786-0
  GI50: > 100 µM (inactive)
OVCAR-8
  GI50: > 100 µM (inactive)
Malme-3M
  GI50: > 100 µM (inactive)
U-251
  GI50: > 100 µM (inactive)
M14
  GI50: > 100 µM (inactive)
COLO 205
  GI50: > 100 µM (inactive)
SF-295
  GI50: > 100 µM (inactive)
SK-MEL-28
  GI50: > 100 µM (inactive)
OVCAR-5
  GI50: > 100 µM (inactive)
RXF 393
  GI50: > 100 µM (inactive)
SK-MEL-2
  GI50: > 100 µM (inactive)
SW-620
  GI50: > 100 µM (inactive)
K562
  GI50: > 100 µM (inactive)
NCI-H226
  GI50: > 100 µM (inactive)
NCI-H522
  GI50: > 100 µM (inactive)
KM12
  GI50: > 100 µM (inactive)
SF-268
  GI50: > 100 µM (inactive)
KM-20L2
  GI50: > 100 µM (inactive)
HCC 2998
  GI50: > 100 µM (inactive)
HT-29
  GI50: > 100 µM (inactive)
XF498
  GI50: > 100 µM (inactive)
LXFL 529
  GI50: > 100 µM (inactive)
HCT-15
  GI50: > 100 µM
SNB-19
  GI50: > 100 µM (inactive)
DMS-114
  GI50: > 100 µM (inactive)
DLD-1
  GI50: > 100 µM (inactive)
UACC-257
  GI50: > 100 µM (inactive)
SF-539
  GI50: > 100 µM (inactive)
SNB-75
  GI50: > 79.8 µM (inactive)
SN12C
  GI50: > 100 µM (inactive)
A498
  GI50: > 100 µM (inactive)
UO-31
  GI50: > 100 µM (inactive)
DMS-273
  GI50: > 100 µM (inactive)
TK-10
  GI50: > 100 µM (inactive)
UACC-62
  GI50: > 100 µM (inactive)
LOX IMVI
  GI50: > 100 µM (inactive)
CAKI-1
  GI50: > 100 µM (inactive)
RPMI-8226
  GI50: > 100 µM (inactive)
NCI-H23
  GI50: > 100 µM (inactive)
SK-MEL-5
  GI50: > 100 µM (inactive)
IGROV-1
  GI50: > 100 µM (inactive)
NCI-H460
  GI50: > 100 µM (inactive)
HOP-62
  GI50: > 100 µM (inactive)
A549
  GI50: > 100 µM (inactive)
SK-OV-3
  GI50: > 100 µM (inactive)

— ChEMBL document CHEMBL1201862, “PubChem BioAssay data set” (2004)
